Assay results taken from article PMC6547681 (Nature Communications, 2019).
Several values for one entry are separate records, joined by “and”; a condition that tells them apart may be missing. Identical values can stand only once. Like-named read-outs stand apart in the source and are kept apart here.

System: BCL-2 G101V
Assay: Steady-state competition SPR against immobilised BIMBH3 peptide, BCL-2 G101V
Type: binding, human
Details: for Ki: BCL-2 G101V
Experimental: SPR experiments were performed as previously described. […] The lowest concentrations used in direct binding experiments were 1 nM for BIAcore 4000 and 0.1 nM for BIAcore S200 instruments, concentrations below these were below the sensitivity thresholds for the instruments. […] Direct binding experiments were fitted to a 1:1 binding site kinetic model, fitting on and off rates, in BIAevaluation software. For competition experiments steady-state responses were determined in BIAevaluation software according to the software defaults in affinity evaluation mode averaging responses for 5 sec. […] All affinity measurements were performed in at least two independent experiments using independent protein preparations.

Structure (SMILES): O=C(c1cc(-c2cc3c(cc2C(=O)N2Cc4ccccc4C[C@H]2CN2CCOCC2)OCO3)n2c1CCCC2)N(c1ccccc1)c1ccc(O)cc1 [S55746]
- Raw data values in Figure 3g (SPR response) (S55746 concentration 40, BCL-2 concentration 60 nM, independent experiment 3): 48.7177
- Raw data values in Figure 3g (SPR response) (S55746 concentration 40, BCL-2 concentration 70 nM, independent experiment 1): 85.9498
- Raw data values in Figure 3g (SPR response) (S55746 concentration 40, BCL-2 concentration 70 nM, independent experiment 2): 301.246
- Raw data values in Figure 3g (SPR response) (S55746 concentration 40, BCL-2 concentration 70 nM, independent experiment 3): 49.6061
- Raw data values in Figure 3g (SPR response) (S55746 concentration 40, BCL-2 concentration 80 nM, independent experiment 1): 87.455
- Raw data values in Figure 3g (SPR response) (S55746 concentration 40, BCL-2 concentration 80 nM, independent experiment 2): 307.892
- Raw data values in Figure 3g (SPR response) (S55746 concentration 40, BCL-2 concentration 80 nM, independent experiment 3): 50.2962
- Raw data values in Figure 3g (SPR response) (S55746 concentration 40, BCL-2 concentration 100 nM, independent experiment 1): 89.2588
- Raw data values in Figure 3g (SPR response) (S55746 concentration 40, BCL-2 concentration 100 nM, independent experiment 2): 318.485
- Raw data values in Figure 3g (SPR response) (S55746 concentration 40, BCL-2 concentration 100 nM, independent experiment 3): 51.3212
- Raw data values in Figure 3g (SPR response) (S55746 concentration 40, BCL-2 concentration 150 nM, independent experiment 1): 91.8217
- Raw data values in Figure 3g (SPR response) (S55746 concentration 40, BCL-2 concentration 150 nM, independent experiment 2): 334.001
- Raw data values in Figure 3g (SPR response) (S55746 concentration 40, BCL-2 concentration 150 nM, independent experiment 3): 52.4759
- Raw data values in Figure 3g (SPR response) (S55746 concentration 40, BCL-2 concentration 200 nM, independent experiment 1): 93.5739
- Raw data values in Figure 3g (SPR response) (S55746 concentration 40, BCL-2 concentration 250 nM, independent experiment 2): 347.773
- Raw data values in Figure 3g (SPR response) (S55746 concentration 40, BCL-2 concentration 250 nM, independent experiment 3): 53.5471
- Raw data values in Figure 3g (SPR response) (S55746 concentration 60, BCL-2 concentration 10 nM, independent experiment 1): 47.4597
- Raw data values in Figure 3g (SPR response) (S55746 concentration 60, BCL-2 concentration 10 nM, independent experiment 2): 98.8052
- Raw data values in Figure 3g (SPR response) (S55746 concentration 60, BCL-2 concentration 20 nM, independent experiment 1): 62.0582
- Raw data values in Figure 3g (SPR response) (S55746 concentration 60, BCL-2 concentration 20 nM, independent experiment 2): 156.985
- Raw data values in Figure 3g (SPR response) (S55746 concentration 60, BCL-2 concentration 30 nM, independent experiment 1): 69.7854
- Raw data values in Figure 3g (SPR response) (S55746 concentration 60, BCL-2 concentration 30 nM, independent experiment 2): 196.195
- Raw data values in Figure 3g (SPR response) (S55746 concentration 60, BCL-2 concentration 40 nM, independent experiment 1): 76.161
- Raw data values in Figure 3g (SPR response) (S55746 concentration 60, BCL-2 concentration 40 nM, independent experiment 2): 224.521
- Raw data values in Figure 3g (SPR response) (S55746 concentration 60, BCL-2 concentration 50 nM, independent experiment 1): 79.3118
- Raw data values in Figure 3g (SPR response) (S55746 concentration 60, BCL-2 concentration 50 nM, independent experiment 2): 244.821
- Raw data values in Figure 3g (SPR response) (S55746 concentration 60, BCL-2 concentration 60 nM, independent experiment 1): 82.6237
- Raw data values in Figure 3g (SPR response) (S55746 concentration 60, BCL-2 concentration 60 nM, independent experiment 2): 261.933
- Raw data values in Figure 3g (SPR response) (S55746 concentration 60, BCL-2 concentration 70 nM, independent experiment 1): 84.8163
- Raw data values in Figure 3g (SPR response) (S55746 concentration 60, BCL-2 concentration 70 nM, independent experiment 2): 275.69
- Raw data values in Figure 3g (SPR response) (S55746 concentration 60, BCL-2 concentration 80 nM, independent experiment 1): 85.9361
- Raw data values in Figure 3g (SPR response) (S55746 concentration 60, BCL-2 concentration 80 nM, independent experiment 2): 286.55
- Raw data values in Figure 3g (SPR response) (S55746 concentration 60, BCL-2 concentration 100 nM, independent experiment 1): 88.8819
- Raw data values in Figure 3g (SPR response) (S55746 concentration 60, BCL-2 concentration 100 nM, independent experiment 2): 303.493
- Raw data values in Figure 3g (SPR response) (S55746 concentration 60, BCL-2 concentration 150 nM, independent experiment 1): 91.2891
- Raw data values in Figure 3g (SPR response) (S55746 concentration 60, BCL-2 concentration 150 nM, independent experiment 2): 325.735
- Raw data values in Figure 3g (SPR response) (S55746 concentration 60, BCL-2 concentration 200 nM, independent experiment 1): 93.4484
- Raw data values in Figure 3g (SPR response) (S55746 concentration 60, BCL-2 concentration 250 nM, independent experiment 2): 343.304
- Raw data values in Figure 3g (SPR response) (S55746 concentration 80, BCL-2 concentration 10 nM, independent experiment 3): 22.8907
- Raw data values in Figure 3g (SPR response) (S55746 concentration 80, BCL-2 concentration 20 nM, independent experiment 3): 32.1933
- Raw data values in Figure 3g (SPR response) (S55746 concentration 80, BCL-2 concentration 30 nM, independent experiment 3): 37.5379
- Raw data values in Figure 3g (SPR response) (S55746 concentration 80, BCL-2 concentration 40 nM, independent experiment 3): 41.1001
- Raw data values in Figure 3g (SPR response) (S55746 concentration 80, BCL-2 concentration 50 nM, independent experiment 3): 43.4737
- Raw data values in Figure 3g (SPR response) (S55746 concentration 80, BCL-2 concentration 60 nM, independent experiment 3): 45.424
- Raw data values in Figure 3g (SPR response) (S55746 concentration 80, BCL-2 concentration 70 nM, independent experiment 3): 46.908
- Raw data values in Figure 3g (SPR response) (S55746 concentration 80, BCL-2 concentration 80 nM, independent experiment 3): 48.0972
- Raw data values in Figure 3g (SPR response) (S55746 concentration 80, BCL-2 concentration 100 nM, independent experiment 3): 49.7546
- Raw data values in Figure 3g (SPR response) (S55746 concentration 80, BCL-2 concentration 150 nM, independent experiment 3): 51.7109
- Raw data values in Figure 3g (SPR response) (S55746 concentration 80, BCL-2 concentration 250 nM, independent experiment 3): 53.091
- Ki (read-out: S55746 KI (mean), competition vs BIMBH3 SPR surface, mean ± SD, n ≥ 2): 36 nM and 35.7 nM
- Ki (read-out: S55746 KI, single independent experiments, independent experiments 1-3): 28.4 nM and 49.8 nM and 29 nM
